# Reference: PubChem BioAssay (NCI)
#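 Growth conditions: 96-well plates. Treatment: test compound, 48 hours, 5 concentrations. Analysis: linear interpolation between bracketing concentrations; unreached endpoints set to highest concentration. TGI is the concentration that stops growth completely.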
# Tested on: NCI-H226 lung
# Experiment: NCI anticancer screen, dose series, 48 h
row,SMILES,TGI [µM]
1,C=C(C)C(=O)OC1C/C(CO)=C\C(O)C/C(C)=C/C2OC(=O)C(=C)C21 (stereo not given),79.5
2,COc1cc2ccnc([C@@H](OC(=O)c3ccccc3)c3ccc(OC)c(OC)c3OC)c2cc1OC,> 100
3,O=C(O)CCNCCCNCCC(=O)O,> 100
4,CN(C)N=Nc1ccc(C(N)=O)cc1,> 100

# Tested on: NCI-H23 lung
# Experiment: NCI anticancer screen, dose series, 48 h
row,SMILES,TGI [µM]
1,COc1cc2ccnc([C@@H](OC(=O)c3ccccc3)c3ccc(OC)c(OC)c3OC)c2cc1OC,> 100
2,O=C(O)CCNCCCNCCC(=O)O,> 100
3,CN(C)N=Nc1ccc(C(N)=O)cc1,> 100

# Tested on: NCI-H460 lung
# Experiment: NCI anticancer screen, dose series, 48 h
row,SMILES,TGI [µM]
1,C=C(C)C(=O)OC1C/C(CO)=C\C(O)C/C(C)=C/C2OC(=O)C(=C)C21 (stereo not given),35
2,COc1cc2ccnc([C@@H](OC(=O)c3ccccc3)c3ccc(OC)c(OC)c3OC)c2cc1OC,> 100
3,O=C(O)CCNCCCNCCC(=O)O,> 100
4,CN(C)N=Nc1ccc(C(N)=O)cc1,> 100

# Tested on: NCI-H522 lung
# Experiment: NCI anticancer screen, dose series, 48 h
row,SMILES,TGI [µM]
1,C=C(C)C(=O)OC1C/C(CO)=C\C(O)C/C(C)=C/C2OC(=O)C(=C)C21 (stereo not given),30.3
2,COc1cc2ccnc([C@@H](OC(=O)c3ccccc3)c3ccc(OC)c(OC)c3OC)c2cc1OC,> 100
3,O=C(O)CCNCCCNCCC(=O)O,> 100
4,CN(C)N=Nc1ccc(C(N)=O)cc1,> 100

# Tested on: OVCAR-3 ovarian
# Experiment: NCI anticancer screen, dose series, 48 h
row,SMILES,TGI [µM]
1,C=C(C)C(=O)OC1C/C(CO)=C\C(O)C/C(C)=C/C2OC(=O)C(=C)C21 (stereo not given),59.4
2,COc1cc2ccnc([C@@H](OC(=O)c3ccccc3)c3ccc(OC)c(OC)c3OC)c2cc1OC,> 100
3,O=C(O)CCNCCCNCCC(=O)O,> 100
4,CN(C)N=Nc1ccc(C(N)=O)cc1,> 100

# Tested on: OVCAR-4 ovarian
# Experiment: NCI anticancer screen, dose series, 48 h
row,SMILES,TGI [µM]
1,C=C(C)C(=O)OC1C/C(CO)=C\C(O)C/C(C)=C/C2OC(=O)C(=C)C21 (stereo not given),63.4
2,COc1cc2ccnc([C@@H](OC(=O)c3ccccc3)c3ccc(OC)c(OC)c3OC)c2cc1OC,> 100
3,O=C(O)CCNCCCNCCC(=O)O,> 100
4,CN(C)N=Nc1ccc(C(N)=O)cc1,> 100

# Tested on: OVCAR-5 ovarian
# Experiment: NCI anticancer screen, dose series, 48 h
row,SMILES,TGI [µM]
1,C=C(C)C(=O)OC1C/C(CO)=C\C(O)C/C(C)=C/C2OC(=O)C(=C)C21 (stereo not given),> 100
2,COc1cc2ccnc([C@@H](OC(=O)c3ccccc3)c3ccc(OC)c(OC)c3OC)c2cc1OC,> 100
3,O=C(O)CCNCCCNCCC(=O)O,> 100
4,CN(C)N=Nc1ccc(C(N)=O)cc1,> 100

# Tested on: OVCAR-8 ovarian
# Experiment: NCI anticancer screen, dose series, 48 h
row,SMILES,TGI [µM]
1,C=C(C)C(=O)OC1C/C(CO)=C\C(O)C/C(C)=C/C2OC(=O)C(=C)C21 (stereo not given),49.5
2,COc1cc2ccnc([C@@H](OC(=O)c3ccccc3)c3ccc(OC)c(OC)c3OC)c2cc1OC,> 100
3,O=C(O)CCNCCCNCCC(=O)O,> 100
4,CN(C)N=Nc1ccc(C(N)=O)cc1,> 100

# Tested on: RPMI-8226 leukemia
# Experiment: NCI anticancer screen, dose series, 48 h
row,SMILES,TGI [µM]
1,C=C(C)C(=O)OC1C/C(CO)=C\C(O)C/C(C)=C/C2OC(=O)C(=C)C21 (stereo not given),45.6
2,COc1cc2ccnc([C@@H](OC(=O)c3ccccc3)c3ccc(OC)c(OC)c3OC)c2cc1OC,> 100
3,O=C(O)CCNCCCNCCC(=O)O,> 100
4,CN(C)N=Nc1ccc(C(N)=O)cc1,> 100

# Tested on: RXF 393 renal
# Experiment: NCI anticancer screen, dose series, 48 h
row,SMILES,TGI [µM]
1,COc1cc2ccnc([C@@H](OC(=O)c3ccccc3)c3ccc(OC)c(OC)c3OC)c2cc1OC,> 100
2,O=C(O)CCNCCCNCCC(=O)O,> 100
3,CN(C)N=Nc1ccc(C(N)=O)cc1,> 100

# Tested on: RXF-631 renal
# Experiment: NCI anticancer screen, dose series, 48 h
row,SMILES,TGI [µM]
1,C=C(C)C(=O)OC1C/C(CO)=C\C(O)C/C(C)=C/C2OC(=O)C(=C)C21 (stereo not given),36.7
2,COc1cc2ccnc([C@@H](OC(=O)c3ccccc3)c3ccc(OC)c(OC)c3OC)c2cc1OC,> 100
3,O=C(O)CCNCCCNCCC(=O)O,> 100

# Tested on: SF-268 CNS
# Experiment: NCI anticancer screen, dose series, 48 h
row,SMILES,TGI [µM]
1,C=C(C)C(=O)OC1C/C(CO)=C\C(O)C/C(C)=C/C2OC(=O)C(=C)C21 (stereo not given),57.8
2,COc1cc2ccnc([C@@H](OC(=O)c3ccccc3)c3ccc(OC)c(OC)c3OC)c2cc1OC,> 100
3,O=C(O)CCNCCCNCCC(=O)O,> 100
4,CN(C)N=Nc1ccc(C(N)=O)cc1,> 100

# Tested on: SF-295 CNS
# Experiment: NCI anticancer screen, dose series, 48 h
row,SMILES,TGI [µM]
1,C=C(C)C(=O)OC1C/C(CO)=C\C(O)C/C(C)=C/C2OC(=O)C(=C)C21 (stereo not given),> 100
2,COc1cc2ccnc([C@@H](OC(=O)c3ccccc3)c3ccc(OC)c(OC)c3OC)c2cc1OC,> 100
3,O=C(O)CCNCCCNCCC(=O)O,> 100
4,CN(C)N=Nc1ccc(C(N)=O)cc1,> 100

# Tested on: SF-539 CNS
# Experiment: NCI anticancer screen, dose series, 48 h
row,SMILES,TGI [µM]
1,C=C(C)C(=O)OC1C/C(CO)=C\C(O)C/C(C)=C/C2OC(=O)C(=C)C21 (stereo not given),46.3
2,COc1cc2ccnc([C@@H](OC(=O)c3ccccc3)c3ccc(OC)c(OC)c3OC)c2cc1OC,> 100
3,O=C(O)CCNCCCNCCC(=O)O,> 100
4,CN(C)N=Nc1ccc(C(N)=O)cc1,> 100

# Tested on: SK-MEL-2 melanoma
# Experiment: NCI anticancer screen, dose series, 48 h
row,SMILES,TGI [µM]
1,C=C(C)C(=O)OC1C/C(CO)=C\C(O)C/C(C)=C/C2OC(=O)C(=C)C21 (stereo not given),36.6
2,COc1cc2ccnc([C@@H](OC(=O)c3ccccc3)c3ccc(OC)c(OC)c3OC)c2cc1OC,> 100
